The structures appear in SMILES notation.

A short description of data set [1]: Microsomal stability assay, liver microsome half-life (dog). The class given is in vitro ADME. As to conditions: pH 7.4; dog liver microsomes 0.5 mg/mL, 1 μM compound, 37° C.; read-out: Liver microsome T1/2 Dog. From the text:
(§1) Microsomal Stability Assay: Microsomal stability assay is a widely used in vitro model to characterize the metabolic conversion by phase I enzymes, such as cytochrome P450 (CYP) enzymes. Since metabolism is known to be highly variable in different species, microsomal stability assay is commonly run in multiple species. Metabolic stability of testing compound can be evaluated using human, rat, mouse, or other animal liver or intestine microsomes to predict intrinsic clearance.
(§2) The assay was carried out in 96-well microtiter plates at 37° C. Reaction mixtures (25 μL) contained a final concentration of 1 μM test compound, 0.5 mg/mL liver microsomes protein, and 1 mM NADPH and/or 1 mM UDPGA (with alamethicin) in 100 mM potassium phosphate, pH 7.4 buffer with 3 mM MgCl2. The incubation was done with N=1, but duplicate incubation at each time point can be prepared if necessary. At each of the time points (for example, 0, 15, 30, and 60 minutes), 150 μL of quench solution (100% acetonitrile with 0.1% formic acid) with internal standard was transferred to each well. Besides the zero minute controls, mixtures containing the same components except the NADPH can also be prepared as the negative control. Verapamil was included as a positive control to verify assay performance. Plates were sealed, vortexed, and centrifuged at 4° C. for 15 minutes at 4000 rpm. The supernatant is transferred to fresh plates for LC/MS/MS analysis.
(§3) Summarized conditions: [Compound]=1 μM, [LM]=0.5 mg/mL, [NADPH]=1 mM and/or [UDPGA]=1 mM, Buffer=100 mM Potassium Phosphate, pH 7.4 with 3 mM MgCl2, Time=0, 15, 30, and 60 min, and Temperature=37° C.
(§4) All samples were analyzed on LC/MS/MS using an AB Sciex API 4000 instrument, coupled to a Shimadzu LC-20AD LC Pump system. Analytical samples were separated using a Waters Atlantis T3 dC18 reverse phase HPLC column (20 mm×2.1 mm) at a flow rate of 0.5 mL/min. The mobile phase consisted of 0.1% formic acid in water (solvent A) and 0.1% formic acid in 100% acetonitrile (solvent B).
(§5) The extent of metabolism is calculated as the disappearance of the test compound, compared to the 0-min time incubation. Initial rates are calculated for the compound concentration and used to determine half-life (t½).

The target in the next data set is T1, androgen receptor (AR) (Homo sapiens, UniProt P10275, T878A).
T1 sequence (P10275 1-920 T878A): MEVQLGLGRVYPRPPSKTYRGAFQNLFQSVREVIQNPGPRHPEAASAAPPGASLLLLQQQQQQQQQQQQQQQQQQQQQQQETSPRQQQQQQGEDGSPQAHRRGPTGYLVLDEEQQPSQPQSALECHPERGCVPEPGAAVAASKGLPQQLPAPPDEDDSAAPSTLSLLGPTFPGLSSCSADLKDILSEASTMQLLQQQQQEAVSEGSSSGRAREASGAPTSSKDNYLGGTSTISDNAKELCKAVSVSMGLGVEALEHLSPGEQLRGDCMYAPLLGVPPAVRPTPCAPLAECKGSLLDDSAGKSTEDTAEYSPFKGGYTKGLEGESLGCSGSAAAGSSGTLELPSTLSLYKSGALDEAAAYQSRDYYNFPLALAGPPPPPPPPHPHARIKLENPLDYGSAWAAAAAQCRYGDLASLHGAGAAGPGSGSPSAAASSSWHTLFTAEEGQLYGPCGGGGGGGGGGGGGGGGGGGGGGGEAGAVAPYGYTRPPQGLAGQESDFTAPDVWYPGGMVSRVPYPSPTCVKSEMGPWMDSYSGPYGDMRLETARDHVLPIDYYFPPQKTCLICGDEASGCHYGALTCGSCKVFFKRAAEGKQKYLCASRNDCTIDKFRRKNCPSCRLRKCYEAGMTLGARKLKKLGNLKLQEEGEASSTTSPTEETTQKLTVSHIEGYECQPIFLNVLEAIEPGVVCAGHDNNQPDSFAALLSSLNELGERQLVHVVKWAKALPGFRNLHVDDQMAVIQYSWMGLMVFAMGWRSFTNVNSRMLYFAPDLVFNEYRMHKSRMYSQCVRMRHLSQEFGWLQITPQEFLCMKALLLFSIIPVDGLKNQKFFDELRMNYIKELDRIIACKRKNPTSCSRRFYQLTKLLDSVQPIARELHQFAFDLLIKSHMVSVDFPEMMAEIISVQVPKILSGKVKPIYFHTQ
Nature of the data set: Androgen-induced PSA (6.1 kb)-luciferase reporter assay in LNCaP cells (R1881 1 nM). It is filed as cell-based. More on the design: endogenous in cells; host or cells: LNCaP. The note with it: 24 h, read-out: PSA-Luc IC50 Range. The procedure, abridged:
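LNCaP cells transiently transfected with PSA (6.1 kb)-luciferase for 24 h, pretreated 1 h with compound or DMSO, then stimulated with 1 nM R1881 for 24 h. Firefly luciferase in lysates normalized to protein content; IC50 relative to R1881-induced vehicle activity.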

The nature of data set [2]: Microsomal stability assay, liver microsome half-life (mouse). The class given is in vitro ADME. The note with it: pH 7.4; mouse liver microsomes 0.5 mg/mL, 1 μM compound, 37° C.; read-out: Liver microsome T1/2 Mouse.
From the text: as §1, §2, §3, §4
(§6) The extent of metabolism is calculated as the disappearance of the test compound, compared to the 0-min time incubation. Initial rates are calculated for the compound concentration and used to determine half-life (t½). […]
A general note: Liver microsomes are vesicles of endoplasmic reticulum, rich in cytochrome P450 enzymes.

Data set [3] in a line: Microsomal stability assay, liver microsome half-life (human). The class given is in vitro ADME. As to conditions: pH 7.4; human liver microsomes 0.5 mg/mL, 1 μM compound, 37° C.; read-out: Liver microsome T1/2 Human.
From the text: as §1, §2, §3, §4, §6

Data set [4] is described as follows: Microsomal stability assay, liver microsome half-life (rat). The class given is in vitro ADME. As to conditions: pH 7.4; rat liver microsomes 0.5 mg/mL, 1 μM compound, 37° C.; read-out: Liver microsome T1/2 Rat.
From the text: as §1, §2, §3, §4, §6

The nature of data set [5]: Microsomal stability assay, liver microsome half-life (monkey). The note with it: pH 7.4; monkey liver microsomes 0.5 mg/mL, 1 μM compound, 37° C.; read-out: Liver microsome T1/2 Monkey. The class given is in vitro ADME.
From the text: as §1, §2, §3, §4, §5

Regarding `CS(=O)(=O)NC1CCN(Cc2ccc3c(ccn3-c3cc(Cl)c(OCCCl)c(C#N)c3)c2)CC1` [Compound A169], the half-life at 1 μM in data set [1], in data set [2], in data set [3], in data set [4] and in data set [5] was greater than 120 min throughout. Further, the IC50 on androgen receptor (AR) is greater than 2000 nM.
On to `CC(C)(c1ccc(-c2ccc3nc(NS(C)(=O)=O)ncc3c2)cc1)c1cc(Cl)c(OCCCl)c(C#N)c1` [Compound A51, N-[6-(4-{2-[3-chloro-4-(2-chloroethoxy)-5-cyanophenyl]propan-2-yl}phenyl)quinazolin-2-yl]methanesulfonamide], for which the half-life at 1 μM in data set [1] was 107 min; in data set [2], greater than 120 min; in data set [3], greater than 120 min; in data set [4] it was greater than 120 min; in data set [5], greater than 120 min. In addition, the IC50 at androgen receptor (AR) was less than 500 nM.
Consider `CS(=O)(=O)Nc1nccc(COc2ccc3c(c2)CCC3c2cc(Cl)c(OCCCl)c(C#N)c2)n1` (stereo not drawn) [Compound A35, N-(4-(((1-(3-chloro-4-(2-chloroethoxy)-5-cyanophenyl)-2,3-dihydro-1H-inden-5-yl)oxy)methyl)pyrimidin-2-yl)methanesulfonamide], for which the half-life at 1 μM in data set [1], in data set [2], in data set [3], in data set [4] and in data set [5] was greater than 120 min each time. Also, the IC50 on androgen receptor (AR) was in the range of 500 to 2000 nM.
For the molecule `CC(C)(c1ccc(-c2ccn3nc(NS(C)(=O)=O)nc3c2)cc1)c1cc(Cl)c(OCCCl)c(C#N)c1` [Compound A113], the half-life at 1 μM was greater than 120 min in data set [1]; greater than 120 min in data set [2]; 116 min in data set [3]; greater than 120 min in data set [4]; greater than 120 min in data set [5]. Further, at androgen receptor (AR), the IC50 fell in the range of 500 to 2000 nM.
In the case of `CC(C)(c1ccc(-c2ccc3nc(NS(C)(=O)=O)ccc3n2)cc1)c1cc(Cl)c(OCCCl)c(C#N)c1` [Compound A191], the half-life at 1 μM in data set [1], in data set [2], in data set [3], in data set [4] and in data set [5] was greater than 120 min throughout. The IC50 on androgen receptor (AR) is less than 500 nM.
In the case of `CS(=O)(=O)Nc1cnc2cc(-c3ccc4c(c3)CCC4c3cc(Cl)c(OCCCl)c(C#N)c3)ccc2n1` (stereo not drawn) [Compound A270], the half-life at 1 μM in data set [1], in data set [2], in data set [3], in data set [4] and in data set [5] was greater than 120 min in each case. In addition, the IC50 at androgen receptor (AR) lay within 500 to 2000 nM.
As to `CC(C)(c1ccc(OCc2cnc(NS(C)(=O)=O)nc2N2CCOCC2)cc1)c1cc(Cl)c(OCCCl)c(C#N)c1` [Compound A100], the half-life at 1 μM is greater than 120 min in data set [1]; 96 min in data set [2]; greater than 120 min in data set [3]; 51 min in data set [4]; 38 min in data set [5]. In addition, the IC50 at androgen receptor (AR) was less than 500 nM.
As for `CS(=O)(=O)Nc1ncc(Cn2ncc3c(-c4cc(Cl)c(OCCCl)c(C#N)c4)cccc32)cn1` [Compound A144], the half-life at 1 μM in data set [1], in data set [2], in data set [3], in data set [4] and in data set [5] was greater than 120 min in each case. At androgen receptor (AR), the IC50 was in the range of 500 to 2000 nM.
As to `CC(C)(c1ccc(-c2ccc3nc(NS(C)(=O)=O)oc3c2)cc1)c1cc(Cl)c(OCCCl)c(C#N)c1` [Compound A254], the half-life at 1 μM in data set [1], in data set [2], in data set [3], in data set [4] and in data set [5] was greater than 120 min each time. Further, the IC50 on androgen receptor (AR) fell in the range of 500 to 2000 nM.
`COc1c(Cl)cc(C(C)(C)c2ccc(-c3ccc4nc(NS(C)(=O)=O)cnc4c3)cc2)cc1C#N` [Compound A269]: the half-life at 1 μM in data set [1] was 79 min; in data set [2] it was greater than 120 min; in data set [3], greater than 120 min; in data set [4], greater than 120 min; in data set [5], greater than 120 min. Also, on androgen receptor (AR), the IC50 is greater than 2000 nM.
Take `CS(=O)(=O)Nc1nccc(COc2ccc3c(ccn3-c3cc(Cl)c(OCCCl)c(C#N)c3)c2)n1` [Compound A36, N-(4-(((1-(3-chloro-4-(2-chloroethoxy)-5-cyanophenyl)-1H-indol-5-yl)oxy)methyl)pyrimidin-2-yl)methanesulfonamide]: the half-life at 1 μM in data set [1], in data set [2], in data set [3], in data set [4] and in data set [5] was greater than 120 min each time. For the same molecule, the IC50 on androgen receptor (AR) is less than 500 nM.
In the case of `CC(C)(c1ccc(OCc2ccnc(NS(C)(=O)=O)n2)cc1)c1ccc(OCC(O)CCl)cc1` (stereo not drawn) [Compound A150, N-(4-((4-(2-(4-(3-chloro-2-hydroxypropoxy)phenyl)propan-2-yl)phenoxy)methyl)pyrimidin-2-yl)methanesulfonamide], the half-life at 1 μM in data set [1], in data set [2], in data set [3], in data set [4] and in data set [5] was greater than 120 min in each case. In addition, the IC50 at androgen receptor (AR) was less than 500 nM.
`CC(C)(c1ccc(-c2ccc3nc(NS(C)(=O)=O)nc(N)c3c2)cc1)c1cc(Cl)c(OCCCl)c(C#N)c1` [Compound A173]: the half-life at 1 μM in data set [1], in data set [2], in data set [3], in data set [4] and in data set [5] was greater than 120 min each time. In addition, the IC50 on androgen receptor (AR) was less than 500 nM.
For `CC(Oc1ccc2c(ccn2-c2cc(Cl)c(OCCCl)c(C#N)c2)c1)C12CC(NS(C)(=O)=O)(C1)C2` (stereo not drawn) [Compound A180], the half-life at 1 μM in data set [1] was 58 min; in data set [2] it was greater than 120 min; in data set [3], greater than 120 min; in data set [4], greater than 120 min; in data set [5], 45 min. At androgen receptor (AR), the IC50 lay in the range of 500 to 2000 nM.

As a reminder, the IC50 is the concentration needed to halve the response being measured.

Source of the values: patent publication US20220380378A1 (ESSA Pharma, Inc., priority 2021, published 2022).
